Assay results from patent publication USRE48461E1, “Modulation of androgen receptor expression” (Ionis Pharmaceuticals, Inc., priority 2012, dated 2021).
pIC50: −log10 of the molar value. Oligonucleotides are written 5' to 3', each unit as a sugar letter and its base; * is a phosphorothioate linkage, no mark a phosphodiester; rarer units and linkages stand in square brackets, end groups in braces. Plain capitals give the bases only. k = constrained ethyl (cEt); [5mC] = 5-methylcytosine; d = 2'-deoxy (DNA)

Tests used:
AR mRNA [1] = experiment: Antisense inhibition of human AR in HuVEC cells, single concentration (electroporation, qRT-PCR RTS3559); assay type: cell-based; conditions: electroporation, approximately 24 hours, relative to untreated control
Method in brief: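 HuVEC cells electroporated with antisense oligonucleotides at a single concentration. AR mRNA quantified by qRT-PCR using human primer-probe set RTS3559 and normalised to total RNA content by RIBOGREEN.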

AR mRNA [2] = experiment: Dose-dependent antisense inhibition of human AR in HuVEC cells (electroporation, qRT-PCR RTS3559, IC50); assay type: cell-based; conditions: HuVEC, electroporation, approximately 16 hours
Method in brief: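 HuVEC cells dosed with antisense oligonucleotides by electroporation and treated approximately 16 hours. AR mRNA quantified by real-time qPCR with primer probe set RTS3559 and normalised to total RNA by RIBOGREEN; IC50 from dose-response.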

[3] = Table 23, 500 nM oligonucleotide
[4] = Table 24, 1,000 nM oligonucleotide

Row | Substance | % inhibition (AR mRNA [1]; [3]) | percent inhibition of AR, 46.9 nM (AR mRNA [2]; Table 35) | percent inhibition of AR, 187.5 nM (AR mRNA [2]; Table 35) | percent inhibition of AR, 750.0 nM (AR mRNA [2]; Table 35) | percent inhibition of AR, 3000.0 nM (AR mRNA [2]; Table 35) | pIC50 (AR mRNA [2]; Table 35) | % inhibition (AR mRNA [1]; [4]) | also measured
1 | 584044 (k[5mC]*k[5mC]*k[5mC]*dT*dT*d[5mC]*dA*dG*d[5mC]*dG*dG*d[5mC]*dT*k[5mC]*kT*kT; antisense) [compound 584044] |  |  |  |  |  |  |  | % inhibition (AR mRNA [1]; Table 22, 500 nM oligonucleotide): 29%; percent inhibition of AR, 46.9 nM (AR mRNA [2]; Table 34): 23%; percent inhibition of AR, 187.5 nM (AR mRNA [2]; Table 34): 30%; percent inhibition of AR, 750.0 nM (AR mRNA [2]; Table 34): 51%; percent inhibition of AR, 3000.0 nM (AR mRNA [2]; Table 34): 78%; pIC50 (AR mRNA [2]; Table 34): 6.36
2 | 584069 (k[5mC]*kA*kG*dA*dG*dT*d[5mC]*dA*dT*d[5mC]*d[5mC]*d[5mC]*dT*kG*k[5mC]*kT; antisense) [compound 584069] | 36% |  |  |  |  |  |  | percent inhibition of AR, 46.9 nM (AR mRNA [2]; Table 34): 18%; percent inhibition of AR, 187.5 nM (AR mRNA [2]; Table 34): 40%; percent inhibition of AR, 750.0 nM (AR mRNA [2]; Table 34): 63%; percent inhibition of AR, 3000.0 nM (AR mRNA [2]; Table 34): 82%; pIC50 (AR mRNA [2]; Table 34): 6.52
3 | 584111 (kG*kT*kT*dT*dT*d[5mC]*dA*dA*dA*dT*dG*d[5mC]*dA*kG*k[5mC]*k[5mC]; antisense) [compound 584111] | 33% | 22% | 30% | 59% | 84% | 6.48 |  | 
4 | 584125 (kG*k[5mC]*k[5mC]*dA*dT*dG*dA*dG*dA*d[5mC]*dA*dG*d[5mC]*kT*kT*kT; antisense) [compound 584125] | 35% |  |  |  |  |  |  | percent inhibition of AR, 46.9 nM (AR mRNA [2]; Table 34): 12%; percent inhibition of AR, 187.5 nM (AR mRNA [2]; Table 34): 12%; percent inhibition of AR, 750.0 nM (AR mRNA [2]; Table 34): 47%; percent inhibition of AR, 3000.0 nM (AR mRNA [2]; Table 34): 76%; pIC50 (AR mRNA [2]; Table 34): 6.14
5 | 584128 (kA*kT*kT*d[5mC]*dT*dT*dG*dA*d[5mC]*dT*dG*dT*d[5mC]*kT*kG*kA; antisense) [compound 584128] | 38% |  |  |  |  |  |  | percent inhibition of AR, 46.9 nM (AR mRNA [2]; Table 34): 20%; percent inhibition of AR, 187.5 nM (AR mRNA [2]; Table 34): 22%; percent inhibition of AR, 750.0 nM (AR mRNA [2]; Table 34): 41%; percent inhibition of AR, 3000.0 nM (AR mRNA [2]; Table 34): 72%; pIC50 (AR mRNA [2]; Table 34): 6.13
6 | 584138 (k[5mC]*kG*k[5mC]*dG*d[5mC]*dA*dG*dG*dT*dA*dG*dG*dA*kG*k[5mC]*k[5mC]; antisense) [compound 584138] | 35% | 2% | 40% | 62% | 89% | 6.43 |  | 
7 | 584139 (kT*k[5mC]*kT*dA*dA*dA*d[5mC]*dA*dT*dG*dA*d[5mC]*dG*kG*kT*kT; antisense) [compound 584139] | 37% |  |  |  |  |  |  | percent inhibition of AR, 46.9 nM (AR mRNA [2]; Table 34): 13%; percent inhibition of AR, 187.5 nM (AR mRNA [2]; Table 34): 33%; percent inhibition of AR, 750.0 nM (AR mRNA [2]; Table 34): 56%; percent inhibition of AR, 3000.0 nM (AR mRNA [2]; Table 34): 85%; pIC50 (AR mRNA [2]; Table 34): 6.40
8 | 584145 (kA*kT*kG*dG*dG*dA*dG*dT*dA*dA*d[5mC]*dT*dT*kT*kT*kG; antisense) [compound 584145] |  | 6% | 32% | 63% | 88% | 6.44 | 76% | 
9 | 584148 (k[5mC]*kA*kT*dA*dT*dT*dA*dT*dT*dG*dT*dG*d[5mC]*kT*kG*k[5mC]; antisense) [compound 584148] |  | 16% | 48% | 79% | 95% | 6.70 | 85% | 
10 | 584152 (kG*kA*kG*dT*dT*dG*dT*dG*dA*dT*dT*dT*d[5mC]*kA*kG*kG; antisense) [compound 584152] |  | 28% | 59% | 87% | 95% | 6.96 | 88% | 
11 | 584157 (kT*kT*kG*dA*dT*dG*dG*dA*dA*dT*dG*d[5mC]*dT*kG*kA*kT; antisense) [compound 584157] |  |  |  |  |  |  | 69% | percent inhibition of AR, 46.9 nM (AR mRNA [2]; Table 36): 6%; percent inhibition of AR, 187.5 nM (AR mRNA [2]; Table 36): 6%; percent inhibition of AR, 750.0 nM (AR mRNA [2]; Table 36): 52%; percent inhibition of AR, 3000.0 nM (AR mRNA [2]; Table 36): 82%; pIC50 (AR mRNA [2]; Table 36): 6.23
12 | 584158 (kG*kG*kT*dT*dA*dA*d[5mC]*dT*dT*dT*d[5mC]*dT*d[5mC]*kT*kG*kA; antisense) [compound 584158] |  |  |  |  |  |  | 69% | percent inhibition of AR, 46.9 nM (AR mRNA [2]; Table 36): 14%; percent inhibition of AR, 187.5 nM (AR mRNA [2]; Table 36): 37%; percent inhibition of AR, 750.0 nM (AR mRNA [2]; Table 36): 70%; percent inhibition of AR, 3000.0 nM (AR mRNA [2]; Table 36): 89%; pIC50 (AR mRNA [2]; Table 36): 6.59
13 | 584162 (kT*kG*kG*dA*dT*dT*dG*dT*dA*dA*dA*dT*dT*kA*k[5mC]*kG; antisense) [compound 584162] |  | 24% | 45% | 80% | 92% | 6.74 | 82% | 
14 | 584165 (kT*k[5mC]*kA*dA*dT*d[5mC]*dT*dA*dG*dA*dT*dA*d[5mC]*k[5mC]*kA*kT; antisense) [compound 584165] |  |  |  |  |  |  | 70% | percent inhibition of AR, 46.9 nM (AR mRNA [2]; Table 36): 12%; percent inhibition of AR, 187.5 nM (AR mRNA [2]; Table 36): 34%; percent inhibition of AR, 750.0 nM (AR mRNA [2]; Table 36): 66%; percent inhibition of AR, 3000.0 nM (AR mRNA [2]; Table 36): 89%; pIC50 (AR mRNA [2]; Table 36): 6.52
15 | 584166 (k[5mC]*kA*k[5mC]*dA*dT*d[5mC]*dA*dG*dA*dA*dG*dG*dA*kG*kT*kA; antisense) [compound 584166] |  | 34% | 52% | 84% | 92% | 7.00 | 89% | 
16 | 584167 (kG*kA*kG*dT*dG*dT*dT*dA*dA*dT*dG*dA*dA*kG*kA*k[5mC]; antisense) [compound 584167] |  | 13% | 45% | 76% | 93% | 6.68 | 78% | 
17 | 584168 (k[5mC]*kT*kG*dA*dT*dT*dA*dG*d[5mC]*dT*dA*dT*dG*kA*k[5mC]*k[5mC]; antisense) [compound 584168] |  |  |  |  |  |  | 70% | percent inhibition of AR, 46.9 nM (AR mRNA [2]; Table 36): 5%; percent inhibition of AR, 187.5 nM (AR mRNA [2]; Table 36): 32%; percent inhibition of AR, 750.0 nM (AR mRNA [2]; Table 36): 70%; percent inhibition of AR, 3000.0 nM (AR mRNA [2]; Table 36): 91%; pIC50 (AR mRNA [2]; Table 36): 6.49
18 | 584179 (kA*kT*kG*dA*dG*dT*d[5mC]*d[5mC]*dT*d[5mC]*dA*dG*dA*kA*kT*k[5mC]; antisense) [compound 584179] |  | 1% | 25% | 62% | 87% | 6.36 | 74% | 
19 | 584180 (kG*kT*kA*dG*dA*dT*dT*d[5mC]*dT*dA*dG*d[5mC]*dT*kT*kT*kG; antisense) [compound 584180] |  | 26% | 56% | 84% | 96% | 6.92 | 81% | 
20 | 584183 (kA*k[5mC]*kA*dG*dG*d[5mC]*dT*d[5mC]*dT*dG*dA*d[5mC]*dT*kA*kG*kG; antisense) [compound 584183] |  | 3% | 41% | 64% | 87% | 6.51 | 76% | 
